Data taken from patent US20170107203A1, “HETEROCYCLIC INHIBITORS OF THE SODIUM CHANNEL” (EPIRUS BIOPHARMACEUTICALS, INC., priority 2014, published 2017).

Biological target: T1, human Nav1.7 (Homo sapiens, UniProt Q15858)
T1 construct: expressed in transfected cells
Experiment: Assessment of Nav1.7 activity on PatchXpress (voltage dependence / slow inactivation parameters)
Format: cell-based
Settings: compound at 10 μM, relative to 0.2% DMSO vehicle control; for hNav1.7: Reduction in current at 20 mV (normalized data) Delta Ratio: before/after 30 sec conditioning pulse at 20 mV; for hNav1.7: Shift in voltage dependence of inactivation (mV) Delta Vhalf: PatchXpress
Procedure: The generation of a HEK 293F cell line stably expressing human Nav1.7/Navp1 was achieved by co-transfecting human SCN9A and human SCN1B cDNAs, subcloned into plasmid vectors, utilizing standard transfection techniques. Clones were selected using appropriate selection agents (0.3 mg/mL Zeocin and 0.8 mg/mL Geneticin) and maintained in Dulbecco's Modified Eagle medium, 10% fetal bovine serum, 1% non-essential amino acids to ˜80% confluence at 37° C. in a humidified incubator with 95% atmosphere and 5% CO2.
On the day of each experiment, cells that were grown to 80% confluence in a T75 flask were harvested for use on PatchXpress (Molecular Devices, CA, USA). Following a recovery period at 37° C. in a humidified incubator with 95% atmosphere and 5% CO2 in Dulbecco's Modified Eagle Medium, the media was replaced with an external recording solution containing (in mM): 90 TEACI, 50 NaCl, 1.8 CaCl2, 1 MgCl2, 10 HEPES, 10 glucose, adjusted to pH 7.4 with TEAOH and 300 mOsm with sucrose. The internal recording solution contained (in mM): 129 CsF, 2 MgCl2, 11 EGTA, 10 HEPES, 6 NaCl, 3 Na2ATP adjusted to pH 7.2 with CsOH and 280 mOsm with sucrose. The automated liquid handling facility of PatchXpress dispensed cells and added compound. Modulation of Nav1.7 channels by compounds was assessed by promoting the channels into the inactivated state using a conditioning voltage pulse of variable amplitude, followed by a brief hyperpolarizing pulse with a subsequent depolarized voltage step to measure the current amplitude in the presence and absence of compound. Compounds were assayed at 10 μM. Based upon this Patch express protocol, four electrophysiological parameters were measured relative to a 0.2% DMSO vehicle control (Table 2).

T1 sequence (Q15858 whole entry): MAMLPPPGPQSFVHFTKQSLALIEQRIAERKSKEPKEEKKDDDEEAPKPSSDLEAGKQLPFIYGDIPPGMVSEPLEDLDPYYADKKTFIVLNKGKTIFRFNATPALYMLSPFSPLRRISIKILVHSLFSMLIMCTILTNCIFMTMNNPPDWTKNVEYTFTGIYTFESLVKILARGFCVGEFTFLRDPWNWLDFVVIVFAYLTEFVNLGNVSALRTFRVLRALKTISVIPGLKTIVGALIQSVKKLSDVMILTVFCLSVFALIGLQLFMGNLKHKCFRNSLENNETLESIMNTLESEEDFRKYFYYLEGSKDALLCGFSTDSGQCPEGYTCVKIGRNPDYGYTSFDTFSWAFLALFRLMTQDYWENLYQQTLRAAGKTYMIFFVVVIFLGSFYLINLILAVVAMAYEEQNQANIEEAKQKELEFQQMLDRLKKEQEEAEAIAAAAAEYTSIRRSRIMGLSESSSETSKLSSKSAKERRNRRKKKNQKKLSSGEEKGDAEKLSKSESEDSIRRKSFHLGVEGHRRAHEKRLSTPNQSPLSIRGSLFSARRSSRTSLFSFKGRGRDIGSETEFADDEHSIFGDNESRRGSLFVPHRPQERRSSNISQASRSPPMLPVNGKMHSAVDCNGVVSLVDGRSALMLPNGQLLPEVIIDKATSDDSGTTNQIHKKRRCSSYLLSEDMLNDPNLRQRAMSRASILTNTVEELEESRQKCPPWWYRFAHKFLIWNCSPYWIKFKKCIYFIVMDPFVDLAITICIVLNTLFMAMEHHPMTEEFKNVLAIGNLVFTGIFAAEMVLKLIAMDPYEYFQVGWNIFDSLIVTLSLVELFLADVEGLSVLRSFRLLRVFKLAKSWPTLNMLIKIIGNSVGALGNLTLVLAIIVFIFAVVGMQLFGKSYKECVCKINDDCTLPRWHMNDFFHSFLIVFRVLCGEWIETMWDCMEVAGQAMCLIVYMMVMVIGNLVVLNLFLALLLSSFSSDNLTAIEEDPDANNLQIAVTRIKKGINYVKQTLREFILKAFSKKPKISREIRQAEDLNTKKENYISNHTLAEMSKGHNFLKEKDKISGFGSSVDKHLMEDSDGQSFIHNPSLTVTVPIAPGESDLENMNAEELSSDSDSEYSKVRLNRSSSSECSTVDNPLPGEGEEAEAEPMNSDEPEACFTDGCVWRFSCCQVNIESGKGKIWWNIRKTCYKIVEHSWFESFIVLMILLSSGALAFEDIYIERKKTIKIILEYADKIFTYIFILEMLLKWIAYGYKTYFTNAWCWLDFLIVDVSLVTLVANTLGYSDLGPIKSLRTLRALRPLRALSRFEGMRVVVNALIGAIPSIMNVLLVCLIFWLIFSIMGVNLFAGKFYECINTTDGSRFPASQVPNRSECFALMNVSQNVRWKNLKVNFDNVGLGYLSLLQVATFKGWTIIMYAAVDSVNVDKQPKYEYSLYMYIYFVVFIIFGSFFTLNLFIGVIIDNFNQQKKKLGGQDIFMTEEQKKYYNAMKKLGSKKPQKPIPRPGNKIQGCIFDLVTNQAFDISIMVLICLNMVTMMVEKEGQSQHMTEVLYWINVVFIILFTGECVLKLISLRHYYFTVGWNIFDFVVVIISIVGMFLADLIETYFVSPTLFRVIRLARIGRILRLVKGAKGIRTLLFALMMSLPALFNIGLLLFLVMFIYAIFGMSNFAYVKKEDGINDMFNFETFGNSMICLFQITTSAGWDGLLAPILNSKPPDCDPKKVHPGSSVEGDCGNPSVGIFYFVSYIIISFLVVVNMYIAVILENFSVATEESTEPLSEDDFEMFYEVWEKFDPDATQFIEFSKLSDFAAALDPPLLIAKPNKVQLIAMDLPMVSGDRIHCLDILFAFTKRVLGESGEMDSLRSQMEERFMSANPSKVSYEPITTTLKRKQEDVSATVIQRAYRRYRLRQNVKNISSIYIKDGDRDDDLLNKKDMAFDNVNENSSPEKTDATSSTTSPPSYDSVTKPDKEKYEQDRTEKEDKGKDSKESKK
T1 sequence (Q07699 19-218 partner): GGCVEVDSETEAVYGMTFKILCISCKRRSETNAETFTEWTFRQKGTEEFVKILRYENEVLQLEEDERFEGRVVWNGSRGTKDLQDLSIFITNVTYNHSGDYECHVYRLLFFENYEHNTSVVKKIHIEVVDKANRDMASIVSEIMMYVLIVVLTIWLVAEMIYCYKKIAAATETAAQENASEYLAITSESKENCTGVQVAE

| Structure (SMILES) | hNav1.7: Reduction in current at 20 mV (normalized data) Delta Ratio | hNav1.7: Voltage dependence of activation (mV) VDEP [mV] | hNav1.7: Voltage dependence of fast inactivation (mV) VDEP [mV] | hNav1.7: Shift in voltage dependence of inactivation (mV) Delta Vhalf [mV] |
| --- | --- | --- | --- | --- |
| Cc1cccc(C)c1OCC(C)NC(=O)[C@@H](N)CC(C)C (stereo partly drawn) [Compound 3, (2S)-2-amino-N-(1-(2,6-dimethylphenoxy)propan-2-yl)-4-methylpentanamide] | −0.28 | −8.10 | −7.40 | −28.00 |
| CC(C)CC(N)C(=O)N[C@H](C)COc1cc(C(F)(F)F)cc(C(F)(F)F)c1 (stereo partly drawn) [Compound 5, 2-amino-N-((R)-1-(3,5-bis(trifluoromethyl)phenoxy)propan-2-yl)-4-methylpentanamide] | −0.26 | −4.60 | −6.30 | −25.20 |
| N[C@H](Cc1ccc(F)cc1)Cc1nc2cc(C(F)(F)F)cc(C(F)(F)F)c2[nH]1 [Compound 56, (R)-1-(4,6-bis(trifluoromethyl)-1H-benzo[d]imidazol-2-yl)-3-(4-fluorophenyl)propan-2-amine] | −0.21 | −14.4 | −3.3 | −16.8 |
| N[C@H](Cc1cccc(C(F)(F)F)c1)C(=O)NCc1nc2c(C(F)(F)F)cc(C(F)(F)F)cc2[nH]1 [Compound 75, (R)-2-amino-N-((4,6-bis(trifluoromethyl)-1H-benzo[d]imidazol-2-yl)methyl)-3-(3-(trifluoromethyl)phenyl)propanamide] | −0.06 | −15.4 | −3.7 | −2.3 |
| NCC(=O)NCc1cc(C(F)(F)F)cc(C(F)(F)F)c1 [Compound 78, 2-amino-N-(3,5-bis(trifluoromethyl)benzyl)acetamide] | −0.04 | −10.5 | −4.6 | −4.2 |
| Cc1cccc(C)c1OCC(C)NC(=O)[C@H](N)CC(C)C (stereo partly drawn) [Compound 2, (2R)-2-amino-N-(1-(2,6-dimethylphenoxy)propan-2-yl)-4-methylpentanamide] | −0.29 | −10.00 | −8.20 | −32.20 |
| O=C(NC12CC3CC(CC(C3)C1)C2)[C@@H]1CCCN1 [Compound 45, (S)-N-(adamantan-1-yl)pyrrolidine-2-carboxamide] | −0.07 | −5.10 | −7.00 | −6.20 |
| N[C@H]1CCCC[C@H]1C(=O)NCCOc1cc(C(F)(F)F)cc(C(F)(F)F)c1 [Compound 8, (1R,2S)-2-amino-N-(2-(3,5-bis(trifluoromethyl)phenoxy)ethyl) cyclohexane-1-carboxamide] | −0.23 | −7.80 | −6.80 | −16.40 |
| CC(C)(CN1CCNCC1=O)c1nc2cc(C(F)(F)F)cc(C(F)(F)F)c2[nH]1 [Compound 65, 1-(2-(4,6-bis(trifluoromethyl)-1H-benzo[d]imidazol-2-yl)-2-methylpropyl)piperazin-2-one] | −0.16 | −8.1 | −6.2 | −3.5 |
| CC(C)(CC(=O)N1CCNCC1)c1nc2cc(C(F)(F)F)cc(C(F)(F)F)c2[nH]1 [Compound 62, 3-(4,6-bis(trifluoromethyl)-1H-benzo[d]imidazol-2-yl)-3-methyl-1-(piperazin-1-yl)butan-1-one] | −0.19 | −7.4 | −3.8 | −12.5 |
| CC(C)(C)OC(=O)N[C@H](Cc1cccc(C(F)(F)F)c1)C(=O)NCc1nc2ccc(Br)cc2[nH]1 [Compound 72, tert-butyl (R)-(1-(((6-bromo-1H-benzo[d]imidazol-2-yl)methyl)amino)-1-oxo-3-(3-(trifluoromethyl)phenyl)propan-2-yl)carbamate] | −0.07 | −3.3 | −7.3 | −6.7 |
| O=C(Cc1nc2cc(F)cc(F)c2[nH]1)NC1CCNCC1 [Compound 89, 2-(4,6-difluoro-1H-benzo[d]imidazol-2-yl)-N-(piperidin-4-yl)acetamide] | −0.01 | −10.6 | −4.4 | −3.6 |
| Cc1cccc(C)c1OCC(C)NC(=O)CC(=O)NC1CCNCC1 (stereo not drawn) [Compound 34, N1-(1-(2,6-dimethylphenoxy)propan-2-yl)-N3-(piperidin-4-yl)malonamide] | −0.03 | −6.30 | −5.10 | −2.30 |
| Cc1cccc(C)c1OCC(C)NC(=O)C(C)(C)N1CCNCC1=O (stereo not drawn) [Compound 37, N-(1-(2,6-dimethylphenoxy)propan-2-yl)-2-methyl-2-(2-oxopiperazin-1-yl)propanamide] | −0.09 | −9.00 | −6.30 | −5.00 |
| Cc1cccc(C)c1OCC(C)NC(=O)CCN1CCNCC1=O (stereo not drawn) [Compound 36, N-(1-(2,6-dimethylphenoxy)propan-2-yl)-3-(2-oxopiperazin-1-yl)propanamide] | −0.04 | −12.90 | −5.00 | −2.90 |
| CC1(c2cc(C(F)(F)F)cc(C(F)(F)F)c2)NC(=O)NC1=O (stereo not drawn) [Compound 42, 5-(3,5-bis(trifluoromethyl)phenyl)-5-methylimidazolidine-2,4-dione] | 0.02 | −6.60 | −2.50 | 0.50 |
| O=C1NC(=O)C(c2cc(C(F)(F)F)cc(C(F)(F)F)c2)N1 (stereo not drawn) [Compound 41, 5-(3,5-bis(trifluoromethyl)phenyl) imidazolidine-2,4-dione] | 0.00 | −9.00 | −5.30 | −2.80 |
| CC(C)(C)OC(=O)N[C@H](Cc1cccc(C(F)(F)F)c1)C(=O)NCc1nc2ccc(-c3ccc(F)c(Cl)c3)cc2[nH]1 [Compound 76, tert-butyl (R)-(1-(((6-(3-chloro-4-fluorophenyl)-1H-benzo[d]imidazol-2-yl)methyl)amino)-1-oxo-3-(3-(trifluoromethyl)phenyl)propan-2-yl)carbamate] | −0.06 | −11.4 | −3.9 | −0.3 |
